# Results reported in PubChem BioAssay (NCI).
#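 In this assay, cells in 96-well plates receive the compound at five concentrations for 48 hours. Endpoints are linearly interpolated between the surrounding concentrations. TGI: concentration producing complete growth inhibition.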
# How the values were obtained:
# Test in all cases: NCI anticancer screen, dose series, 48 h
# SK-MEL-5 melanoma = test system: SK-MEL-5 melanoma
# RXF-631 renal = test system: RXF-631 renal
# NCI-H460 lung = test system: NCI-H460 lung
# KM12 colon = test system: KM12 colon
# HCT-116 colon = test system: HCT-116 colon
# LXFL 529 NSCLC = test system: LXFL 529 NSCLC
# SN12C renal = test system: SN12C renal
# UACC-257 melanoma = test system: UACC-257 melanoma
# K-562 leukemia = test system: K-562 leukemia
# OVCAR-3 ovarian = test system: OVCAR-3 ovarian
# UACC-62 melanoma = test system: UACC-62 melanoma
# IGROV1 ovarian = test system: IGROV1 ovarian
# OVCAR-4 ovarian = test system: OVCAR-4 ovarian
# CAKI-1 renal = test system: CAKI-1 renal
# A549 NSCLC = test system: A549 NSCLC
# OVCAR-5 ovarian = test system: OVCAR-5 ovarian
# SF-295 CNS = test system: SF-295 CNS
# HOP-18 NSCLC = test system: HOP-18 NSCLC
# SK-MEL-28 melanoma = test system: SK-MEL-28 melanoma
# M14 melanoma = test system: M14 melanoma
# 786-0 renal = test system: 786-0 renal
# NCI-H522 lung = test system: NCI-H522 lung
# DMS 114 small cell lung = test system: DMS 114 small cell lung
# SW-620 colon = test system: SW-620 colon
# CCRF-CEM leukemia = test system: CCRF-CEM leukemia
# DMS 273 small cell lung = test system: DMS 273 small cell lung
# HOP-62 NSCLC = test system: HOP-62 NSCLC
# HT29 colon = test system: HT29 colon
# MOLT-4 leukemia = test system: MOLT-4 leukemia
# A498 renal = test system: A498 renal
# COLO 205 colon = test system: COLO 205 colon
# SK-MEL-2 melanoma = test system: SK-MEL-2 melanoma
# UO-31 renal = test system: UO-31 renal
# SNB-78 CNS = test system: SNB-78 CNS
# MALME-3M melanoma = test system: MALME-3M melanoma
# ACHN renal = test system: ACHN renal
# LOX IMVI melanoma = test system: LOX IMVI melanoma
# OVCAR-8 ovarian = test system: OVCAR-8 ovarian
# NCI-H23 lung = test system: NCI-H23 lung
# KM20L2 colon = test system: KM20L2 colon
# RPMI-8226 leukemia = test system: RPMI-8226 leukemia
# SK-OV-3 ovarian = test system: SK-OV-3 ovarian
# EKVX NSCLC = test system: EKVX NSCLC
# TK-10 renal = test system: TK-10 renal
# SNB-75 CNS = test system: SNB-75 CNS
# HCC-2998 colon = test system: HCC-2998 colon
# NCI-H226 lung = test system: NCI-H226 lung
# SF-268 CNS = test system: SF-268 CNS
# SNB-19 CNS = test system: SNB-19 CNS
# HOP-92 NSCLC = test system: HOP-92 NSCLC
# U251 CNS = test system: U251 CNS
# HL-60(TB) leukemia = test system: HL-60(TB) leukemia
# SF-539 CNS = test system: SF-539 CNS
# DLD-1 colon = test system: DLD-1 colon
# RXF 393 renal = test system: RXF 393 renal
# HCT-15 colon = test system: HCT-15 colon
# M19-MEL melanoma = test system: M19-MEL melanoma
# XF 498 CNS = test system: XF 498 CNS
# SR leukemia = test system: SR leukemia
structure (smiles),measurement,setting,value
CC(C)CC(N)C(=O)OCN1C(=O)C2C3C=CC(C2C1=O)C1C2C(=O)N(COC(=O)C(N)CC(C)C)C(=O)C2C31 (stereo unspecified),TGI,SK-MEL-5 melanoma,> 100 µM
same,TGI,RXF-631 renal,> 100 µM
same,TGI,NCI-H460 lung,> 100 µM
same,TGI,KM12 colon,> 100 µM
same,TGI,HCT-116 colon,> 60.5 µM
same,TGI,LXFL 529 NSCLC,> 100 µM
same,TGI,SN12C renal,> 100 µM
same,TGI,UACC-257 melanoma,> 100 µM
same,TGI,K-562 leukemia,> 100 µM
same,TGI,OVCAR-3 ovarian,> 100 µM
same,TGI,UACC-62 melanoma,> 100 µM
same,TGI,IGROV1 ovarian,> 100 µM
same,TGI,OVCAR-4 ovarian,> 100 µM
same,TGI,CAKI-1 renal,> 100 µM
same,TGI,A549 NSCLC,> 100 µM
same,TGI,OVCAR-5 ovarian,> 100 µM
same,TGI,SF-295 CNS,> 100 µM
same,TGI,HOP-18 NSCLC,> 100 µM
same,TGI,SK-MEL-28 melanoma,> 100 µM
same,TGI,M14 melanoma,> 100 µM
same,TGI,786-0 renal,> 100 µM
same,TGI,NCI-H522 lung,> 100 µM
same,TGI,DMS 114 small cell lung,> 100 µM
same,TGI,SW-620 colon,> 75.6 µM
same,TGI,CCRF-CEM leukemia,> 100 µM
same,TGI,DMS 273 small cell lung,> 100 µM
same,TGI,HOP-62 NSCLC,> 100 µM
same,TGI,HT29 colon,> 100 µM
same,TGI,MOLT-4 leukemia,> 100 µM
same,TGI,A498 renal,> 100 µM
same,TGI,COLO 205 colon,> 100 µM
same,TGI,SK-MEL-2 melanoma,> 100 µM
same,TGI,UO-31 renal,> 100 µM
same,TGI,SNB-78 CNS,> 100 µM
same,TGI,MALME-3M melanoma,> 100 µM
same,TGI,ACHN renal,> 100 µM
same,TGI,LOX IMVI melanoma,> 58.1 µM
same,TGI,OVCAR-8 ovarian,> 100 µM
same,TGI,NCI-H23 lung,> 100 µM
same,TGI,KM20L2 colon,> 100 µM
same,TGI,RPMI-8226 leukemia,> 78.6 µM
same,TGI,SK-OV-3 ovarian,> 100 µM
same,TGI,EKVX NSCLC,> 100 µM
same,TGI,TK-10 renal,> 100 µM
same,TGI,SNB-75 CNS,> 100 µM
same,TGI,HCC-2998 colon,> 100 µM
same,TGI,NCI-H226 lung,> 100 µM
same,TGI,SF-268 CNS,> 100 µM
same,TGI,SNB-19 CNS,> 100 µM
same,TGI,HOP-92 NSCLC,> 100 µM
same,TGI,U251 CNS,> 100 µM
same,TGI,HL-60(TB) leukemia,65.2 µM
same,TGI,SF-539 CNS,> 100 µM
same,TGI,DLD-1 colon,> 100 µM
same,TGI,RXF 393 renal,> 100 µM
same,TGI,HCT-15 colon,> 64.5 µM
CN(C)/C(=N/C(=S)Nc1ccccc1)SCc1ccccc1,TGI,SK-MEL-5 melanoma,> 100 µM
same,TGI,RXF-631 renal,> 100 µM
same,TGI,KM12 colon,> 100 µM
same,TGI,LXFL 529 NSCLC,> 100 µM
same,TGI,SN12C renal,> 100 µM
same,TGI,UACC-257 melanoma,> 100 µM
same,TGI,K-562 leukemia,> 100 µM
same,TGI,OVCAR-3 ovarian,> 100 µM
same,TGI,UACC-62 melanoma,> 100 µM
same,TGI,IGROV1 ovarian,> 100 µM
same,TGI,OVCAR-4 ovarian,> 100 µM
same,TGI,CAKI-1 renal,> 100 µM
same,TGI,A549 NSCLC,> 100 µM
same,TGI,OVCAR-5 ovarian,> 100 µM
same,TGI,SF-295 CNS,> 100 µM
same,TGI,HOP-18 NSCLC,> 100 µM
same,TGI,SK-MEL-28 melanoma,> 100 µM
same,TGI,M14 melanoma,> 100 µM
same,TGI,786-0 renal,> 100 µM
same,TGI,NCI-H522 lung,> 100 µM
same,TGI,DMS 114 small cell lung,> 100 µM
same,TGI,SW-620 colon,> 100 µM
same,TGI,CCRF-CEM leukemia,> 100 µM
same,TGI,M19-MEL melanoma,> 100 µM
same,TGI,DMS 273 small cell lung,> 100 µM
same,TGI,HOP-62 NSCLC,> 100 µM
same,TGI,XF 498 CNS,> 100 µM
same,TGI,HT29 colon,> 100 µM
same,TGI,MOLT-4 leukemia,> 100 µM
same,TGI,A498 renal,> 100 µM
same,TGI,COLO 205 colon,> 100 µM
same,TGI,SK-MEL-2 melanoma,> 100 µM
same,TGI,UO-31 renal,95.8 µM
same,TGI,SNB-78 CNS,> 100 µM
same,TGI,MALME-3M melanoma,> 100 µM
same,TGI,ACHN renal,> 100 µM
same,TGI,LOX IMVI melanoma,> 100 µM
same,TGI,OVCAR-8 ovarian,> 100 µM
same,TGI,NCI-H23 lung,> 100 µM
same,TGI,RPMI-8226 leukemia,> 100 µM
same,TGI,SK-OV-3 ovarian,> 100 µM
same,TGI,EKVX NSCLC,> 100 µM
same,TGI,TK-10 renal,> 100 µM
same,TGI,SNB-75 CNS,> 100 µM
same,TGI,HCC-2998 colon,> 100 µM
same,TGI,NCI-H226 lung,> 100 µM
same,TGI,SF-268 CNS,> 100 µM
same,TGI,SNB-19 CNS,> 100 µM
same,TGI,U251 CNS,> 100 µM
same,TGI,HL-60(TB) leukemia,51.4 µM
same,TGI,SF-539 CNS,> 100 µM
same,TGI,DLD-1 colon,> 100 µM
same,TGI,RXF 393 renal,> 100 µM
same,TGI,HCT-15 colon,> 100 µM
O=[N+]([O-])[C@@H]1C2C=CC(C2)[C@H]1Cl (stereo partly specified),TGI,SK-MEL-5 melanoma,> 100 µM
same,TGI,RXF-631 renal,> 100 µM
same,TGI,NCI-H460 lung,> 100 µM
same,TGI,KM12 colon,> 100 µM
same,TGI,HCT-116 colon,> 100 µM
same,TGI,LXFL 529 NSCLC,> 100 µM
same,TGI,SN12C renal,> 100 µM
same,TGI,UACC-257 melanoma,> 100 µM
same,TGI,K-562 leukemia,> 100 µM
same,TGI,OVCAR-3 ovarian,> 100 µM
same,TGI,UACC-62 melanoma,> 100 µM
same,TGI,IGROV1 ovarian,> 100 µM
same,TGI,OVCAR-4 ovarian,> 100 µM
same,TGI,CAKI-1 renal,> 100 µM
same,TGI,A549 NSCLC,> 100 µM
same,TGI,OVCAR-5 ovarian,> 100 µM
same,TGI,SF-295 CNS,> 100 µM
same,TGI,HOP-18 NSCLC,> 100 µM
same,TGI,SK-MEL-28 melanoma,> 100 µM
same,TGI,SR leukemia,> 100 µM
same,TGI,M14 melanoma,> 100 µM
same,TGI,786-0 renal,> 100 µM
same,TGI,NCI-H522 lung,> 100 µM
same,TGI,DMS 114 small cell lung,> 100 µM
same,TGI,SW-620 colon,> 100 µM
same,TGI,CCRF-CEM leukemia,> 100 µM
same,TGI,M19-MEL melanoma,> 100 µM
same,TGI,DMS 273 small cell lung,> 100 µM
same,TGI,HOP-62 NSCLC,> 100 µM
same,TGI,XF 498 CNS,> 100 µM
same,TGI,HT29 colon,> 100 µM
same,TGI,MOLT-4 leukemia,> 100 µM
same,TGI,A498 renal,> 100 µM
same,TGI,COLO 205 colon,> 100 µM
same,TGI,SK-MEL-2 melanoma,> 100 µM
same,TGI,UO-31 renal,> 100 µM
same,TGI,SNB-78 CNS,> 100 µM
same,TGI,MALME-3M melanoma,> 100 µM
same,TGI,ACHN renal,> 100 µM
same,TGI,LOX IMVI melanoma,> 100 µM
same,TGI,OVCAR-8 ovarian,> 100 µM
same,TGI,NCI-H23 lung,> 100 µM
same,TGI,RPMI-8226 leukemia,> 100 µM
same,TGI,SK-OV-3 ovarian,> 100 µM
same,TGI,EKVX NSCLC,> 100 µM
same,TGI,TK-10 renal,> 100 µM
same,TGI,SNB-75 CNS,> 100 µM
same,TGI,SF-268 CNS,> 100 µM
same,TGI,SNB-19 CNS,> 100 µM
same,TGI,HOP-92 NSCLC,> 100 µM
same,TGI,U251 CNS,> 100 µM
same,TGI,HL-60(TB) leukemia,> 100 µM
same,TGI,SF-539 CNS,> 100 µM
same,TGI,DLD-1 colon,> 100 µM
same,TGI,RXF 393 renal,> 100 µM
same,TGI,HCT-15 colon,> 100 µM
